# Active and inactive are the calls of the source.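 How the source made its calls: active means half-maximal cytotoxic concentration at or below 10 µM; inactive means the rest.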
# Tested on: HEK293 LDH release cytotoxicity, resorufin fluorescence
# Experiment: HEK cell cytotoxicity by LDH release, dose response, cytotoxicity control for IDE activator project, fluorescence, HEK cells (AID 588440)
row,Structure (SMILES),CC50
1,C#CCOCCOCCOCCNc1nc(N2CCN(C(=O)CCCCCCCCCCNC(=O)[C@H]([C@@H](C)CC)n3cc(CCCCN=C(N)N)nn3)CC2)nc(N2CCN(C(=O)CCCCCCCCCCNC(=O)[C@@H]([C@H](C)O)n3cc(C)nn3)CC2)n1,6.37 µM
2,C#CCOCCOCCOCCNc1nc(N2CCN(C(=O)CCCCCCCCCCNC(=O)Cn3cc(C[C@@H](C)O)nn3)CC2)nc(N2CCN(C(=O)CCCCCCCCCCNC(=O)[C@H](CCCN=C(N)N)n3cc(C[C@@H](C)CC)nn3)CC2)n1,7.28 µM
3,C#CCOCCOCCOCCNc1nc(N2CCN(C(=O)CCCCCCCCCCNC(=O)[C@H]([C@@H](C)CC)n3cc(CCCCCN)nn3)CC2)nc(N2CCN(C(=O)CCCCCCCCCCNC(=O)[C@H]([C@@H](C)CC)n3cc(CCCCN=C(N)N)nn3)CC2)n1,2.07 µM
4,C#CCOCCOCCOCCNc1nc(N2CCN(C(=O)CCCCCCCCCCNC(=O)[C@@H](CCSC)n3cc(CCO)nn3)CC2)nc(N2CCN(C(=O)CCCCCCCCCCNC(=O)[C@H](CO)n3cc(CCCCCN)nn3)CC2)n1,12.6 µM (inactive)
5,C#CCOCCOCCOCCNc1nc(N2CCN(C(=O)CCCCCCCCCCNC(=O)[C@H](CO)n3cc(CCCSC)nn3)CC2)nc(N2CCN(C(=O)CCCCCCCCCCNC(=O)[C@H](CCCCN)n3cc(CCO)nn3)CC2)n1,20.8 µM (inactive)
6,C#CCOCCOCCOCCNc1nc(N2CCN(C(=O)CCCCCCCCCCNC(=O)[C@H](CCCCN)n3cc(CCO)nn3)CC2)nc(N2CCN(C(=O)CCCCCCCCCCNC(=O)[C@H](CCCN=C(N)N)n3cc(C[C@@H](C)CC)nn3)CC2)n1,5.63 µM
7,C#CCOCCOCCOCCNc1nc(N2CCN(C(=O)CCCCCCCCCCNC(=O)Cn3cc(CCCCCN)nn3)CC2)nc(N2CCN(C(=O)CCCCCCCCCCNC(=O)[C@H]([C@@H](C)CC)n3cc(CCCCCN)nn3)CC2)n1,5.97 µM
8,C#CCOCCOCCOCCNc1nc(N2CCN(C(=O)CCCCCCCCCCNC(=O)Cn3cc(CCCCCN)nn3)CC2)nc(N2CCN(C(=O)CCCCCCCCCCNC(=O)[C@H](CO)n3cc(CCCSC)nn3)CC2)n1,17.4 µM (inactive)
9,C#CCOCCOCCOCCNc1nc(N2CCN(C(=O)CCCCCCCCCCNC(=O)Cn3cc(CCCCCN)nn3)CC2)nc(N2CCN(C(=O)CCCCCCCCCCNC(=O)Cn3cc(C[C@@H](C)O)nn3)CC2)n1,16.4 µM (inactive)

# Source: PubChem BioAssay AID588440 (The Scripps Research Institute Molecular Screening Center, 2011)
